According to US7462630B2, “Diarylalkene derivatives and novel diarylalkane derivatives” (Ajinomoto Co., Inc., priority 2001, dated 2008):

Assays:
N-type calcium channel = molecular target: T1, N-type calcium channel (Homo sapiens, UniProt Q00975); experiment: Antagonistic activity on N-type calcium channel (fluorescence dye method, KCl-stimulated intracellular calcium change in IMR-32 cells with 1 μM Nifedipine); type: cell-based; conditions: 10 μM test compound, 60 mM KCl stimulation, read-out: Antagonistic activity on N-type calcium channels at 10 μM inhibition rate (%)
T1 construct: host or cells: IMR-32 human neuroblastoma cells, differentiated with dibutyl cAMP and 5-bromodeoxyuridine
Experimental: Human neuroblastoma cells IMR-32 were obtained from ATCC (American Type Culture Collection). The medium used was a Phenol Red-free Eagle minimum essential medium containing earle's salts (GIBCO) supplemented with 2 mM of L-glutamine (GIBCO), 1 mM of sodium pyruvate (pH 6.5) (GIBCO), antibiotic/antimycotic mixture (GIBCO) and 10% fetal calf serum (Cell Culture Technologies). Three ml of 1×10^5 cells/ml IMR-32 cells were spread on the glass bottom of a dish (Iwaki Glsss Co., Ltd.) having a diameter of 35 mm which had been treated with poly-L-lysin (SIGMA) and collagen (COLLAGEN VITROGEN 100; Collagen Co.). After the culture for 1 day, 1 mM (final concentration) of dibutyl cAMP and 2.5 μM (final concentration) of 5-bromodeoxyuridine (SIGMA) were added. After the culture for additional 10 to 14 days, the cells were subjected to the activity determination.
The medium for IMR-32 cells thus prepared was replaced with 1 ml of Phenol Red-free Eale minimum essential medium (GIBCO) containing 2.5 μM fura-2/AM (Dojin Kagaku, Co.) and earle's salts supplement, and the incubation was conducted at 37° C. for 30 minutes. Then the medium was replaced with a recording medium (20 mM of HEPES-KOH, 115 mM of NaCl, 5.4 mM of KCl, 0.8 mM of MgCl2, 1.8 mM of CaCl2 and 13.8 mM of D-glucose). Antagonistic activity on N-type calcium channel was determined and analyzed using a fluorescence microscope (Nikon Corporation) and an image analysis device ARGUS 50 (Hamamatsu Photonics). In particular, a recording medium (20 mM of HEPES-KOH, 115 mM of NaCl, 5.4 mM of KCl, 0.8 mM of MgCl2, 1.8 mM of CaCl2 and 13.8 mM of D-glucose) containing 1 μM of Nifedipine was given to the cells by reflux by a Y-tube method for 2 minutes. Then a stimulating agent containing 60 mM of potassium chloride was rapidly given by the Y-tube method. The calcium concentration change in the cells in this step was shown as the N-type calcium channel activity. Then stimulating agents containing 60 mM of potassium chloride and 0.1, 1 or 10 μM of the test compound were successively and rapidly given to the cells by the Y-tube method to determine the change in the intracellular calcium concentration. The antagonistic activity on N-type calcium channel was calculated from the inhibition rate (%) at a concentration of 10 μM.

L-type calcium channel = molecular target: T2, L-type calcium channel (Rattus norvegicus, UniProt P22002); experiment: Antagonistic activity on L-type calcium channel (relaxation response against KCl-induced contraction of isolated rat thoracic aorta); conditions: read-out: Antagonistic action on L-type calcium channels pIC50 (converted)
T2 construct: relaxation response against the KCl-induced contraction of isolated rat thoracic aorta was employed; from tissue; host or cells: endothelium-denuded thoracic aorta rings of Wistar rat
Experimental: The antagonistic activity of the new diarylalkene derivatives and diarylalkane derivatives of the present invention to inhibit L-type calcium channel was determined by the following method in which the relaxation response against the KCl-induced contraction of isolated rat thoracic aorta was employed.
The slips of thoracic aorta isolated from a Wistar rat were used. The aorta was cut to obtain ring-shaped samples having a width of about 3 mm. The endothelial cells of the samples were mechanically removed. The samples were suspended in a strain gage in Tyrode's solution (158.3 mM of NaCl, 4.0 mM of KCl, 1.05 mM of MgCl2, 0.42 mM of NaH2PO4, 10 mM of NaHCO3, 2 mM of CaCl2 and 5 mM of glucose) in which a gaseous mixture of O2 (95%) and CO2 (5%) was introduced. A static tension of 2 g was applied thereto. The tension of the blood vessel was amplified with a transducer and a tension amplifier (EF-601G; Nihon Koden Corporation) and recorded with a multi-pen recorder (Rikadenki Kogyo Co., Ltd.). The experiments were conducted at 37° C.
After the tension had been stabilized, the nutrient solution in the sample tank was replaced with High K^+ Tyrode's solution (112.3 mM of NaCl, 50 mM of KCl, 1.05 mM of MgCl2, 0.42 mM of NaH2PO4, 10 mM of NaHCO3, 2 mM of CaCl2 and 5 mM of glucose) to conduct the contraction reaction. Thirty minutes after, the solution in the sample tank was replaced with the normal Tyrode's solution. The solution in the sample tank was again replaced with the High K^+ Tyrode's solution and the contraction reaction was observed. After attaining the maximum contraction reaction, the test compound was cumulatively added at intervals of 90 minutes to attain concentrations of 10^−9, 10^−8, 10^−7 and 10^−6 M. The inhibitory rate of the test compound against the maximum contraction response was employed as the index of the antagonistic activity on L-type calcium channels.
The value of pIC50 indicates the antagonistic activity of the test compound, i. e. the negative logarithm of the concentration of the test compound necessitated for the 50% inhibition.

[1] = test system: Sprague-Dawley (SD) rats, formalin-induced flinching; experiment: Analgesic effects in the formalin test; type: in vivo, rat
Experimental: Four test groups each composed of 7 male Sprague-Dawley: SD rats (9 weeks old) were used for the experiment. In the control group, 0.5% tragacanth solution was given to the rats. In other test groups, 0.3, 3 or 30 mg/kg of the compound obtained in Example 11 (compound A) was given to them. Compound A was used in the form of a suspension thereof in 0.5% tragacanth solution.
Five ml/kg of 0.5% tragacanth solution or compound A was orally administered to the rats. Three hours after, the rats were tranquilized with halothane, and 2.5% formalin solution (100 μl) was injected subcutaneously to dorsal surface of the left hindpaw. Immediately thereafter, the rats were awaken from the anesthesia. […] The number of times of retracting action, i.e., flinching action of the hindpaw in which formalin had been injected, was counted for 1 minute at an interval of one minute until 5 minutes after the formalin injection, and for 1 minute at an interval of 5 minutes from 10 to 60 minutes after the injection. As reported in a literature (J. Pharmacol. Exp. Ther. 263: 136-146, 1992), the pain reaction by the stimulation with formalin appeared in two phases. The total number of times of the flinching action observed 10 to 60 minutes after the formalin injection (the second phase) was taken as the index of the pain action.
The experiment was conducted in the same manner as that in above Test Example 3 except for the followings.
Five test groups each composed of 6 male Sprague-Dawley (SD) rats (9 weeks old) were used for the experiment. In the control group, polyethylene glycol 400 was given to the rats. In the other test groups, 3, 30, 100 or 300 mg/kg of the compound obtained in Example 71 (compound B) was given to them. Compound B was used in the form of a solution thereof in polyethylene glycol 400 (PEG).
Three ml/kg of PEG or compound B was orally administered to the rats.

T2 sequence (P22002 whole entry): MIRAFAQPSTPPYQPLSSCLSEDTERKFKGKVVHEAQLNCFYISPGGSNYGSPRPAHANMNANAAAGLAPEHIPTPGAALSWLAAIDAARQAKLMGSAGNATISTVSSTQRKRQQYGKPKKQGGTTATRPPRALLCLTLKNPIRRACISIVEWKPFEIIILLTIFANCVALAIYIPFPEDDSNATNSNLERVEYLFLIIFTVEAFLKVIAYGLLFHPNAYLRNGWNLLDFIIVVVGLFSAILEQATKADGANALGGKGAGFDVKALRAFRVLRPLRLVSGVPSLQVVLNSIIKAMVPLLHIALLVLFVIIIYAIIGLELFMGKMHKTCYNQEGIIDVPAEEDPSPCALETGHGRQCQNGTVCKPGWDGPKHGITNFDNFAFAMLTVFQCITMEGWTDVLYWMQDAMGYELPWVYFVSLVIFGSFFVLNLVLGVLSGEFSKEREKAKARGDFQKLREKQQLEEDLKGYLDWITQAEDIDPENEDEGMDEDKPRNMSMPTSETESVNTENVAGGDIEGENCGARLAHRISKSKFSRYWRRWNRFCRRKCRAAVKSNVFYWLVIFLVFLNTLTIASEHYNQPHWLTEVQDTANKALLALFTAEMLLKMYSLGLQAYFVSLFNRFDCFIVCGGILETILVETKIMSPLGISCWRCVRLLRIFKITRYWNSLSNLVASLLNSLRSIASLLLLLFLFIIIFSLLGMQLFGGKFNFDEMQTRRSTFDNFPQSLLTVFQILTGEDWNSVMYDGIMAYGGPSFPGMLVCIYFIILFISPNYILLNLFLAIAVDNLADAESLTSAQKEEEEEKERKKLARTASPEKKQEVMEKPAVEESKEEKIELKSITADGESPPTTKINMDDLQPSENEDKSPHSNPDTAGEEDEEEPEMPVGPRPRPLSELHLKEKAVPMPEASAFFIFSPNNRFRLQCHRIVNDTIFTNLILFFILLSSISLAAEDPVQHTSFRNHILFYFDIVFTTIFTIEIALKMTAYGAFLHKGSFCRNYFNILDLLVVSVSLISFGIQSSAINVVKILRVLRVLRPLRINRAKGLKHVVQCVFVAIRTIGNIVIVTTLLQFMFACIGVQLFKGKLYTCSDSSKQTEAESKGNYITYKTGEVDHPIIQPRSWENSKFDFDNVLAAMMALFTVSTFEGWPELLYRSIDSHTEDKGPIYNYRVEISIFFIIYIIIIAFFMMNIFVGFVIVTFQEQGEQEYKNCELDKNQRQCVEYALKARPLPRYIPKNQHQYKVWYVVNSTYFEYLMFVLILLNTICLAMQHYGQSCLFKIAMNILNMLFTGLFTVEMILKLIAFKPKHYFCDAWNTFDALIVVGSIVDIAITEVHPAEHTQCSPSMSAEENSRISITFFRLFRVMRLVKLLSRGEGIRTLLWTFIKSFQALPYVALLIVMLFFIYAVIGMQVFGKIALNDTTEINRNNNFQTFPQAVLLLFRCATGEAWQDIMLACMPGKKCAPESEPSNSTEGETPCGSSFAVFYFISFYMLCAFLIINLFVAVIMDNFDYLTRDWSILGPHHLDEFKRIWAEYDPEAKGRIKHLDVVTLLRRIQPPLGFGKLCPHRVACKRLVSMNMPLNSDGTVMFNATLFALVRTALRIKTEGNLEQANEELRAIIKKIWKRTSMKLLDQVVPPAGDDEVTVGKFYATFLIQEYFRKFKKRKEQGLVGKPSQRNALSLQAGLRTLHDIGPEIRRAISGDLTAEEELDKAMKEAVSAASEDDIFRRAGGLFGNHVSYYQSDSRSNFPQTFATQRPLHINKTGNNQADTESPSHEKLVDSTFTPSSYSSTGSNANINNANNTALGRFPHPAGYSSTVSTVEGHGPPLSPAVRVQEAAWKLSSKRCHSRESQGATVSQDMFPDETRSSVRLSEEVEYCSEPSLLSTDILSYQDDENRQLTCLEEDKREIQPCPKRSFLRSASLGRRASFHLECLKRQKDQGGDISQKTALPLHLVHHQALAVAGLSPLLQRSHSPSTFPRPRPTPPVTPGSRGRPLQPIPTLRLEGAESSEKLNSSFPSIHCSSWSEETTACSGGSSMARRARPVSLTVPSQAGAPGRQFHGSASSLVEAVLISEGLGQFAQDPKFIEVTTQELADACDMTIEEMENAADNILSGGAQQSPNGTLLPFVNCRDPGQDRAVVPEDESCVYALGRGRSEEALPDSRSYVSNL
T2 sequence (P54287 whole entry partner): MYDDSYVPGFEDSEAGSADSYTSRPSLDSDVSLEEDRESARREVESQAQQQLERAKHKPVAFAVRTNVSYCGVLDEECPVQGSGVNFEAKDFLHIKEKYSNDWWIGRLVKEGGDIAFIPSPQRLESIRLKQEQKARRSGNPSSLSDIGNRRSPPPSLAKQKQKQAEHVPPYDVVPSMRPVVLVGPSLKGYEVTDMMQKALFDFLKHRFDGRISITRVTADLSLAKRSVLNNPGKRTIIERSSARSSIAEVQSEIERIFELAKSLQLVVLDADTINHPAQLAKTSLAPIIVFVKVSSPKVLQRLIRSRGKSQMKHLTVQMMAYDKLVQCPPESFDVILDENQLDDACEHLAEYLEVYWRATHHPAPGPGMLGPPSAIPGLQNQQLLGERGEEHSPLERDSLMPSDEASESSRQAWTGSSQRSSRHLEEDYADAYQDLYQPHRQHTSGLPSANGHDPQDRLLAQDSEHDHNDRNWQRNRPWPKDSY
T2 sequence (P54290 25-944 partner limits assumed): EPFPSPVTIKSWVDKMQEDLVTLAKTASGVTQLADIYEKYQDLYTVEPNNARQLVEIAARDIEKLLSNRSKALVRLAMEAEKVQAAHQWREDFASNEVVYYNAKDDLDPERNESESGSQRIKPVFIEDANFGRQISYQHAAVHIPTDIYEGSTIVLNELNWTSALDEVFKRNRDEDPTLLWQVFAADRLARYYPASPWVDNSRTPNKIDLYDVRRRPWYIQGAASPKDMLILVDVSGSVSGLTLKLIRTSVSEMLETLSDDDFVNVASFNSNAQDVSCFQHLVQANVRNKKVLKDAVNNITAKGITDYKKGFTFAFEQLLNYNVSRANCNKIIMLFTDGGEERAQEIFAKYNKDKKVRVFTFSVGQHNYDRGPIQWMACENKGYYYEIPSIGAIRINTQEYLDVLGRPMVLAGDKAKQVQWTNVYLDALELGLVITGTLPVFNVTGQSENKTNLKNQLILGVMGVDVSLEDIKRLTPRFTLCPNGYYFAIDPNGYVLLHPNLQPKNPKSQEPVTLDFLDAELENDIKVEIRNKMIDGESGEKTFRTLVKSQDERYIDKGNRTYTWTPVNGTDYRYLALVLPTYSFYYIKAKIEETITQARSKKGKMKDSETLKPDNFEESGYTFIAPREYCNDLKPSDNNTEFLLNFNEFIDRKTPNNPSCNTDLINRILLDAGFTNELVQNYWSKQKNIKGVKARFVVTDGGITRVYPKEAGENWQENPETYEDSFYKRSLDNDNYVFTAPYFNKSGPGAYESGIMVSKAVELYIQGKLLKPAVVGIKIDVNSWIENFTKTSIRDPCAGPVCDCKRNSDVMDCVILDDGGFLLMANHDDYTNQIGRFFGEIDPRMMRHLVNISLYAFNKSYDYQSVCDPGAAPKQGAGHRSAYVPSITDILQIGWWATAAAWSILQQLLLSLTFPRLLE
T2 sequence (P54290 945-1091 partner limits assumed): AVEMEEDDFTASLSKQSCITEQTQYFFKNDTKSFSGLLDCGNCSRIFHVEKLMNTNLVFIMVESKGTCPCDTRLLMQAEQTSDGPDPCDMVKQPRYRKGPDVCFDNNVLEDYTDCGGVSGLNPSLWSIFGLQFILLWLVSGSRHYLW

Compound | inhibition at 10 µM (N-type calcium channel) | IC50 (L-type calcium channel) | inhibiting ratio of flinches (second phase, 10 to 60 min) based on control group ([1]; 0.3 mg/kg oral, suspension in 0.5% tragacanth, 3 hours before formalin) | inhibiting ratio of flinches (second phase, 10 to 60 min) based on control group ([1]; 3 mg/kg oral, suspension in 0.5% tragacanth, 3 hours before formalin) | inhibiting ratio of flinches (second phase, 10 to 60 min) based on control group ([1]; 30 mg/kg oral, suspension in 0.5% tragacanth, 3 hours before formalin) | inhibiting ratio of flinches (second phase, 10 to 60 min) based on control group ([1]; 3 mg/kg oral, solution in polyethylene glycol 400) | inhibiting ratio of flinches (second phase, 10 to 60 min) based on control group ([1]; 30 mg/kg oral, solution in polyethylene glycol 400) | inhibiting ratio of flinches (second phase, 10 to 60 min) based on control group ([1]; 100 mg/kg oral, solution in polyethylene glycol 400) | inhibiting ratio of flinches (second phase, 10 to 60 min) based on control group ([1]; 300 mg/kg oral, solution in polyethylene glycol 400)
CC(C)(C)C(=O)NCCC(=O)N1CCC(=C2c3ccccc3C=Cc3ccccc32)CC1 [Example 11, N-{3-[4-(5H-dibenzo[a,d][7]annulen-5-ylidene)-1-piperidinyl]-3-oxopropyl}-2,2-dimethylpropanamide] | 77% | 398 nM | 10% | 42% | 37% |  |  |  | 
CC(C)(C)C(=O)N[C@H](CO)CCC(=O)N1CCC(=C2c3ccccc3C=Cc3ccccc32)CC1 [Example 71, (S)-N-[4-[4-(5H-dibenzo[a,d][7]annulen-5-ylidene)-1-piperidinyl]-1-(hydroxylmethyl)-4-oxobutyl]-2.2-dimethylpropanamide] | 74% | 1260 nM |  |  |  | 11% | 33% | 53% | 59%
